These results are taken from patent publication US7452887B2, “Quinoline- and isoquinoline-based compounds exhibiting ATP-utilizing enzyme inhibitory activity, and compositions, and uses thereof” (Amphora Discovery Corporation, priority 2004, dated 2008).

Molecules are shown by their SMILES.

One assay addresses T1, DYRK2 (Homo sapiens, UniProt Q92630).
T1 sequence (Q92630 1-601): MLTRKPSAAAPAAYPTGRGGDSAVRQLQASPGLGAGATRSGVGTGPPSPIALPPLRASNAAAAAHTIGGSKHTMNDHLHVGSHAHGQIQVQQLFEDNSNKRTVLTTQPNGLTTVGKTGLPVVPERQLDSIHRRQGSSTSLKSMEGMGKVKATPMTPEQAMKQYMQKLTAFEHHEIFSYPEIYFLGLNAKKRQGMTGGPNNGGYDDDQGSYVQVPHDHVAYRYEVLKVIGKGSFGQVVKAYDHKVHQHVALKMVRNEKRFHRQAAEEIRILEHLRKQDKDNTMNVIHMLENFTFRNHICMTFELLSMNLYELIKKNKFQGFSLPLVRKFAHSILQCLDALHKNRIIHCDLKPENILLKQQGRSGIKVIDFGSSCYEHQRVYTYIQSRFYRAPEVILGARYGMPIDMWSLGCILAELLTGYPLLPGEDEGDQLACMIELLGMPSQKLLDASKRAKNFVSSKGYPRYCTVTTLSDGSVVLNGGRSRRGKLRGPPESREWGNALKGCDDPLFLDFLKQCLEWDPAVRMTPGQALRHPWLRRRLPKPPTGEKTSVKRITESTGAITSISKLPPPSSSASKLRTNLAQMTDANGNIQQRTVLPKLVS
In words: HTS ATP-utilizing enzyme assay, off-chip mobility-shift (Caliper HTS 250). The conditions noted are these: test compound 10 μM, kinase listed = active (greater than six-sigma from the mean activity of inactive compounds). Format: biochemical. The essentials:
(§1)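 Compounds were tested once at 10 μM against kinase with peptide substrate. After 2.5 hrs at 20° C. to 22° C., reactions were terminated with EDTA, and conversion was read as substrate/product ratio by mobility shift.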

In the next assay the target is T2, PRAK (Homo sapiens, UniProt Q8IW41).
T2 sequence (Q8IW41 1-473): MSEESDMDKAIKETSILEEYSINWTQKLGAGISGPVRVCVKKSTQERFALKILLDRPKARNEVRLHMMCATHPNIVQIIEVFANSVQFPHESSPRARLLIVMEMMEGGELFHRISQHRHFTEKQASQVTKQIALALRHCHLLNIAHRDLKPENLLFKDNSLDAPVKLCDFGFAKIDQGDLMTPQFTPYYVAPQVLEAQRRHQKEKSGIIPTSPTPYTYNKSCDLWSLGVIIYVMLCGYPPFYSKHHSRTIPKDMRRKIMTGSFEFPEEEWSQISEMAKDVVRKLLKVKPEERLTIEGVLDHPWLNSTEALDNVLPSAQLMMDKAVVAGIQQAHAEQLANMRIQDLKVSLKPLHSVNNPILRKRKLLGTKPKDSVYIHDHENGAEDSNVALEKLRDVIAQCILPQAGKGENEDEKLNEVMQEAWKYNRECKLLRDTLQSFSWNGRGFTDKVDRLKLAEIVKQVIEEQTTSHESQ
Described as above. In kind it is biochemical. The conditions noted are these: test compound 10 μM, kinase listed = active (greater than six-sigma from the mean activity of inactive compounds). In short, it runs like this:
as §1

As to `CN1CCN(c2ccc(Nc3ccnc4ccc(-c5ccc(O)cc5)cc34)cc2)CC1` [4-(4-(4-(4-methylpiperazin-1-yl)phenylamino)quinolin-6-yl)phenol], the Activity result on DYRK2 is on record as “DYRK2”; on PRAK it was “PRAK”.

Regarding `CN1CCN(c2ccc(Nc3ccnc4ccc(-c5ccc(F)cc5)cc34)cc2)CC1` [6-(4-fluorophenyl)-N-(4-(4-methylpiperazin-1-yl)phenyl)quinolin-4-amine], the values for the Activity result at DYRK2 and at PRAK were “DYRK2” and “PRAK”, respectively.

With `COc1ccc(-c2ccc3nccc(Nc4ccc(N5CCNCC5)cc4)c3c2)cc1` [6-(4-methoxyphenyl)-N-(4-(piperazin-1-yl)phenyl)quinolin-4-amine], the values for the Activity result at DYRK2 and at PRAK were “DYRK2” and “PRAK”, respectively.

As for `COc1ccc(-c2ccc3nccc(N(C)c4ccc(N5CCN(C)CC5)cc4)c3c2)cc1` [6-(4-methoxyphenyl)-N-methyl-N-(4-(4-methylpiperazin-1-yl)phenyl)quinolin-4-amine], the Activity result at DYRK2 is listed as “DYRK2”.

Consider `c1ccc(-c2ccc3nccc(Nc4ccc(N5CCNCC5)cc4)c3c2)cc1` [6-phenyl-N-(4-(piperazin-1-yl)phenyl)quinolin-4-amine], for which, on PRAK, the Activity result is “PRAK”.

For `CN1CCN(c2ccc(Nc3ccnc4ccc(-c5cccc6ccccc56)cc34)cc2)CC1` [N-(4-(4-methylpiperazin-1-yl)phenyl)-6-(naphthalen-1-yl)quinolin-4-amine], the Activity entry at PRAK is recorded as “PRAK”.

For `CN1CCN(c2ccc(Nc3ccnc4ccc(-c5ccc6ccccc6c5)cc34)cc2)CC1` [N-(4-(4-methylpiperazin-1-yl)phenyl)-6-(naphthalen-2-yl)quinolin-4-amine], the Activity entry on DYRK2 was “DYRK2”; on PRAK, “PRAK”.

Take `CN1CCN(c2ccc(Nc3ccnc4ccc(-c5ccncc5)cc34)cc2)CC1` [N-(4-(4-methylpiperazin-1-yl)phenyl)-6-(pyridin-4-yl)quinolin-4-amine]: the Activity result at DYRK2 is recorded as “DYRK2”; at PRAK, “PRAK”.

As to `Cc1ccccc1-c1ccc2nccc(Nc3ccc(N4CCN(C)CC4)cc3)c2c1` [N-(4-(4-methylpiperazin-1-yl)phenyl)-6-o-tolylquinolin-4-amine], the Activity result is “DYRK2” at DYRK2 and “PRAK” at PRAK.
